Data on 19 compounds can be found in patent US6831190B1, “Guanidinomethyl cyclohexane carboxylic acid ester derivatives” (Teikoku Chemical Industries Co., Ltd., priority 1994, dated 2004).

Common to all, as to assay type: cell-based
Experiment [1] has as its system Helicobacter pylori ATCC 43504. Kind of experiment: MIC, agar plating dilution (standard method of Japanese Chemotherapy Academy). As to the method: (§1) 1. Minimum Inhibitory Concentration (MIC) was measured in accordance with the standard method of Japanese Chemotherapy Academy (Chemotherapy, 29: 76-79, 1981). Sensitivity was measured with an agar plating dilution using Brain-Heart Infusion agar (Difco Co.) which was added 0.1% of cyclodextrin. […] of the solutions of the compounds which were obtained in examples of the present invention was prepared by dissolving in dimethylsulfoxide. […] Each of 1 ml of those prepared solutions was dispensed in share, after sterilization, 9 ml of sensitivity measuring medium which is kept at 50° C. was added to each, and they were sufficiently mixed. The mixture was used as a plate for measuring sensitivity. Brain Heart Infusion agar medium (Difco Co.), which was added 0.1% of cyclodextrin, was used as bacteria growing medium, and was cultured under microair at 37° C. for three days, and the number of bacteria thereof was adjusted to about 106/ml. This was used as a bacterial solution for inoculation. The medium was painted in each square about 2 cm with nichromic line loop. The medium was cultured under microair for three days at 37° C.

For experiment [2], the system named is Helicobacter pylori ATCC 43629. Described as above. As for the experimental part:
as §1

Experiment [3] concerns Escherichia coli NIH JC-2. Kind of experiment: MIC, standard method of Japanese Chemotherapy Academy. To be noted: Objected Strain 3: Escherichia coli NIH JC-2. As to the method: 1. Minimum Inhibitory Concentration (MIC) was measured in accordance with the standard method of Japanese Chemotherapy Academy (Chemotherapy, 29: 76-79, 1981).
Setting [4] is: Objected Strain 1: Helicobacter pylori ATCC 43504.
Setting [5] is: Objected Strain 2: Helicobacter pylori ATCC 43629.
The mark [6] stands for this setting: ATCC43504, Objected Strain 1: Helicobacter pylori ATCC 43504, read-out: MIC.
The mark [7] stands for this setting: ATCC43629, Objected Strain 2: Helicobacter pylori ATCC 43629, read-out: MIC.

Converted amounts (≈) assume the structure as drawn. Where two headings read alike, the source gives them in different places.

A word on the MIC: it is the lowest concentration that inhibits growth of the organism.

As to `Cl.N=C(N)NC[C@H]1CC[C@H](C(=O)Oc2c(Cl)cc(Cl)cc2-c2ccccc2)CC1` [Example 12, trans-4-guanidinomethyl cyclohexane carboxylic acid (2,4-dicloro-6-phenylphenylester).hydrochloride], the MIC is 3.13 µg/mL in experiment [1] (setting [4]), 3.13 µg/mL in experiment [2] (setting [5]) and greater than 25 µg/mL in experiment [3].
For the compound `CC(C)(c1ccccc1)c1ccc(OC(=O)[C@H]2CC[C@H](CNC(=N)N)CC2)cc1.Cl` [Example 34, trans-4-guanidinomethyl cyclohexane carboxylic acid[4-(1-methyl-1-phenylethyl)phenylester].hydrochloride], the MIC was 25 µg/mL in experiment [1] (setting [4]), 25 µg/mL in experiment [2] (setting [5]) and greater than 25 µg/mL in experiment [3].
With `COc1ccc(-c2ccc(OC(=O)[C@H]3CC[C@H](CNC(=N)N)CC3)cc2)cc1.Cl` [Example 5, trans-4-guanidinomethyl cyclohexane carboxylic acid [4-(4-methoxyphenyl)phenylester].hydrochloride], the results for the minimal inhibitory concentration (MIC) in experiment [1] (setting [4]), in experiment [2] (setting [5]) and in experiment [3] were 3.13 µg/mL, 1.56 µg/mL and greater than 25 µg/mL, respectively.
Take `CC(C)(C)c1ccc(OC(=O)C2CCC(CNC(=N)N)CC2)cc1` (stereo not drawn) [Compound 7, reference compound]: the MIC in experiment [1] (setting [6]) was 25 µg/mL (≈ 75.4 µM); in experiment [2] (setting [7]) it was 12.5 µg/mL (≈ 37.7 µM); in experiment [3] (NIHJC2, read-out: MIC), greater than 25 µg/mL.
As for `Cl.N=C(N)NC[C@H]1CC[C@H](C(=O)Oc2c(Cl)cc(-c3ccccc3)cc2Cl)CC1` [Example 13, trans-4-guanidinomethyl cyclohexane carboxylic acid (2,6-dichloro-4-phenylphenylester).hydrochloride], the MIC is 12.5 µg/mL in experiment [1] (setting [4]), 12.5 µg/mL in experiment [2] (setting [5]) and greater than 25 µg/mL in experiment [3].
For `Cl.N=C(N)NC[C@H]1CC[C@H](C(=O)Oc2ccc(Oc3ccccc3)cc2)CC1` [Example 35, trans-4-guanidinomethyl cyclohexane carboxylic acid (4-phenoxyphenylester).hydrochloride], the minimum inhibitory concentration (MIC) in experiment [1] (setting [4]) is 12.5 µg/mL; in experiment [2] (setting [5]), 25 µg/mL; in experiment [3], greater than 25 µg/mL.
In the same order, the values of `Cl.N=C(N)NC[C@H]1CC[C@H](C(=O)Oc2ccc3ccccc3c2)CC1` [Compound 4, trans-4-guanidinomethyl cyclohexane carboxylic acid (2-naphthylester)hydrochloride, reference compound] are 25 µg/mL, 25 µg/mL and greater than 25 µg/mL.
In the same order, the values of `Cl.N=C(N)NC[C@H]1CC[C@H](C(=O)Oc2ccc(-c3ccccc3)cc2Cl)CC1` [Example 6, trans-4-guanidinomethyl cyclohexane carboxylic acid (2-chloro-4-phenylphenylester).hydrochloride] are 6.25 µg/mL, 1.56 µg/mL and greater than 25 µg/mL.
Turning to `Cl.N=C(N)NC[C@H]1CC[C@H](C(=O)Oc2c(C(=O)OCc3ccccc3)cccc2-c2ccccc2)CC1` [Example 9, trans-4-guanidinomethyl cyclohexane carboxylic acid (2-benzyloxycarbonyl-6-phenylphenylester).hydrochloride], the MIC is 6.25 µg/mL in experiment [1] (setting [4]), 3.13 µg/mL in experiment [2] (setting [5]) and greater than 25 µg/mL in experiment [3].
`CCc1ccc(OC(=O)C2CCC(CNC(=N)N)CC2)cc1` (stereo not drawn) [Compound 6, reference compound]: the MIC in experiment [1] (setting [6]) is 25 µg/mL (≈ 82.4 µM); in experiment [2] (setting [7]) it was 25 µg/mL (≈ 82.4 µM); in experiment [3] (NIHJC2, read-out: MIC), greater than 25 µg/mL.
Take `CS(=O)(=O)O.N=C(N)NC[C@H]1CC[C@H](C(=O)Oc2c(C(=O)OCc3ccc(F)cc3)cccc2-c2ccccc2)CC1` [Example 10, trans-4-guanidinomethyl cyclohexane carboxylic acid [2-(4-fluorobenzyloxycarbonyl)-6-phenylphenylester].methansulfonate]: the MIC in experiment [1] (setting [4]) was 6.25 µg/mL; in experiment [2] (setting [5]) it was 6.25 µg/mL; in experiment [3], greater than 25 µg/mL.
For the compound `Cl.N=C(N)NC[C@H]1CC[C@H](C(=O)Oc2cccc3ccccc23)CC1` [Compound 3, trans-4-guanidinomethyl cyclohexane carboxylic acid (1-naphthylester)hydrochloride, reference compound], the minimum inhibitory concentration (MIC) in experiment [1] (setting [4]), in experiment [2] (setting [5]) and in experiment [3] was greater than 25 µg/mL in each case.
Take `Cl.N=C(N)NC[C@H]1CC[C@H](C(=O)Oc2ccc(-c3ccc(F)cc3)cc2)CC1` [Example 27, trans-4-guanidinomethyl cyclohexane carboxylic acid[4-(4-fluorophenyl)phenylester].hydrochloride]: the minimum inhibitory concentration (MIC) in experiment [1] (setting [4]) is 0.78 µg/mL; in experiment [2] (setting [5]) it was 1.56 µg/mL; in experiment [3] it was greater than 25 µg/mL.
In the case of `Cl.N=C(N)NC[C@H]1CC[C@H](C(=O)Oc2ccc(OCc3ccccc3)cc2)CC1` [Example 37, trans-4-guanidinomethyl cyclohexane carboxylic acid (4-benzyloxyphenylester).hydrochloride], the values for the minimal inhibitory concentration (MIC) in experiment [1] (setting [4]), in experiment [2] (setting [5]) and in experiment [3] were 12.5 µg/mL, 3.13 µg/mL and greater than 25 µg/mL, respectively.
`Cl.N=C(N)NC[C@H]1CC[C@H](C(=O)Oc2ccc(Cc3ccccc3)cc2)CC1` [Example 33, trans-4-guanidinomethyl cyclohexane carboxylic acid (4-benzylphenylester).hydrochloride]: the MIC was 12.5 µg/mL in experiment [1] (setting [4]), 12.5 µg/mL in experiment [2] (setting [5]) and greater than 25 µg/mL in experiment [3].
For the compound `Cl.N=C(N)NC[C@H]1CC[C@H](C(=O)Oc2c(Cl)cc(Cl)c3ccccc23)CC1` [Example 29, trans-4-guanidinomethyl cyclohexane carboxylic acid (2,4-dichloro-1-naphthylester).hydrochloride], the minimal inhibitory concentration (MIC) was 6.25 µg/mL in experiment [1] (setting [4]), 12.5 µg/mL in experiment [2] (setting [5]) and greater than 25 µg/mL in experiment [3].
For `Cl.N=C(N)NC[C@H]1CC[C@H](C(=O)Oc2ccc(C=Cc3ccccc3)cc2)CC1` [Example 38, trans-4-guanidinomethyl cyclohexane carboxylic acid (4-styrylphenylester).hydrochloride], the MIC in experiment [1] (setting [4]) is 0.78 µg/mL; in experiment [2] (setting [5]) it was 0.39 µg/mL; in experiment [3], greater than 25 µg/mL.
As to `Cl.N#Cc1ccc(-c2ccc(OC(=O)[C@H]3CC[C@H](CNC(=N)N)CC3)cc2)cc1` [Example 7, trans4-guanidinomethyl cyclohexane carboxylic acid [4-(4-cyanophenyl)phenylester].hydrochloride], the MIC in experiment [1] (setting [4]) was 3.13 µg/mL; in experiment [2] (setting [5]) it was 3.13 µg/mL; in experiment [3], greater than 25 µg/mL.
As to `Cl.N=C(N)NC[C@H]1CC[C@H](C(=O)Oc2ccc(-c3ccc(Br)cc3)cc2)CC1` [Example 4, trans-4-guanidinomethyl cyclohexane carboxylic acid [4-(4-bromophenyl)phenylester].hydrochloride], the minimal inhibitory concentration (MIC) in experiment [1] (setting [4]) is 1.56 µg/mL; in experiment [2] (setting [5]), 0.39 µg/mL; in experiment [3], greater than 25 µg/mL.
